According to patent US9328083B2, “2-aminated methylene or 2-esterified methylene tanshinone derivatives, and preparation method and application thereof” (HANGZHOU BENSHENG PHARMACEUTICAL CO., LTD., priority 2011, dated 2016):
In brackets after ≈: the same amount, converted by molar mass.

Legend:
[1] = test system: H9 (acute lymphoblastic leukemia, ALL); test: MTT growth inhibition of leukemia cells, 72 h; format: cell-based, human; settings: H9, 72 h
Method in brief: (§1)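 Seed 6000 cells per well in serum-supplemented RPMI-1640 (10% FBS); next day add derivatives at several concentrations, diluted from a 10 mg/mL DMSO stock; incubate 72 h at 37 °C, 5% CO2; quantify surviving cells with MTT.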

[2] = test system: Jurkat (acute lymphoblastic leukemia, ALL); test: MTT growth inhibition of leukemia cells, 72 h; format: cell-based, human; settings: 72 h
Method in brief: as §1

[3] = test system: K562/adr (drug-resistant, chronic myeloid leukemia, CML); test: MTT growth inhibition of leukemia cells, 72 h; format: cell-based, human; settings: K562/ADR
Method in brief: as §1

[4] = test system: Kasumi-1 (acute myeloid leukemia M2 type, AML-M2); test: MTT growth inhibition of leukemia cells, 72 h; format: cell-based, human; settings: Kasumi-1, 72 h
Method in brief: as §1

[5] = test system: NB4 (acute promyelocytic leukemia, AML); test: MTT growth inhibition of leukemia cells, 72 h; format: cell-based, human; settings: NB4, 72 h
Method in brief: as §1

[6] = test system: RPMI8226 (multiple myeloma); test: MTT growth inhibition of multiple myeloma cells, 72 h; format: cell-based, human; settings: RPMI 8226, 72 h
Method in brief: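 Viability read by MTT after 72 h at 37° C, 5% CO2: compounds from a 10 mg/mL DMSO stock were diluted in medium and added at several concentrations to 6000 RPMI8226 cells per well in 1640 medium plus 10% FBS.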

[7] = test system: A549 (human lung cancer); test: MTT growth inhibition of human solid tumor cells, 72 h; format: cell-based; settings: A549, 72 h
Method in brief: (§2)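 We plate 4000 cells into each well, culture them 24 h (37° C, 5% CO2, DMEM High Glucose plus 10% fetal bovine serum), add compound dilutions, mix uniformly and measure viable cell concentration.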

[8] = test system: Becap37 (human breast cancer cell); test: as above; format: cell-based; settings: Becap-37, 72 h
Method in brief: as §2

[9] = test system: CNE (nasopharyngeal carcinoma cell); test: as above; format: cell-based
Method in brief: as §2

[10] = test system: CaES-17 (esophageal cancer cell); test: as above; format: cell-based; settings: CaEs-17, 72 h
Method in brief: as §2

[11] = test system: Hela (human cervical cancer cell); test: as above; format: cell-based; settings: Hela, 72 h
Method in brief: as §2

[12] = test system: Hep G2 (human liver cancer cell); test: as above; format: cell-based; settings: Hep G2, 72 h
Method in brief: as §2

[13] = test system: Hep-2 (laryngeal carcinoma); test: as above; format: cell-based; settings: HeP-2, 72 h
Method in brief: as §2

[14] = test system: MG63 (osteosarcoma); test: as above; format: cell-based; settings: MG-63, 72 h
Method in brief: as §2

[15] = test system: MGC 803 (human gastric cancer cell); test: as above; format: cell-based; settings: MGC-803, 72 h
Method in brief: as §2

[16] = test system: PANC-1 (pancreatic cancer); test: as above; format: cell-based; settings: PANC-1, 72 h
Method in brief: as §2

[17] = test system: PC-3 (prostate cancer); test: as above; format: cell-based; settings: PC-3, 72 h
Method in brief: as §2

[18] = test system: RKO (human colon adenocarcinoma cell); test: as above; format: cell-based
Method in brief: as §2

[19] = test system: SK-OV-3 (ovarian cancer cell); test: as above; format: cell-based; settings: SK-OV-3, 72 h
Method in brief: as §2

[20] = test system: U87 MG (malignant glioma cell); test: as above; format: cell-based; settings: U87-MG, 72 h
Method in brief: as §2

[21] = test system: Hep G2 cells; settings: in vitro, literature; cited from earlier work
[22] = test system: tumor-bearing nude mice; settings: literature; cited from earlier work
[23] = test system: SGC-7901 human gastric adenocarcinoma cells; settings: concentration dependent within a certain range, literature; cited from earlier work
[24] = background statement; cited from earlier work
[25] = background statement; cited from earlier work; remark: listed apart in the source

Compound: Cc1coc2c1C(=O)C(=O)c1c-2ccc2c(C)cccc12 [TA, 1,6-dimethyl-phenanthreno [1,2-b]furan-10,11-diketone, reference compound]
- IC50 [1]: 3.5 µg/mL (≈ 12.7 µM)
- IC90 [1]: 13.06 µg/mL (≈ 47.3 µM)
- IC50 [2]: 1.74 µg/mL (≈ 6.3 µM)
- IC90 [2]: 8.42 µg/mL (≈ 30.5 µM)
- IC50 [3]: 0.88 µg/mL (≈ 3.19 µM)
- IC90 [3]: 4.17 µg/mL (≈ 15.1 µM)
- IC50 [4]: 0.99 µg/mL (≈ 3.58 µM)
- IC90 [4]: 3.62 µg/mL (≈ 13.1 µM)
- IC50 [5]: 0.98 µg/mL (≈ 3.55 µM)
- IC90 [5]: 2.50 µg/mL (≈ 9.05 µM)
- IC50 [6]: 0.96 µg/mL (≈ 3.47 µM)
- IC90 [6]: 10.86 µg/mL (≈ 39.3 µM)
- IC50 [7]: 4.03 µg/mL (≈ 14.6 µM)
- IC90 [7]: 17.29 µg/mL (≈ 62.6 µM)
- IC50 [8]: 3.03 µg/mL (≈ 11 µM)
- IC90 [8]: >16 µg/mL
- IC50 [9]: 7.4 µg/mL (≈ 26.8 µM)
- IC90 [9]: >16 µg/mL
- IC50 [10]: 3.18 µg/mL (≈ 11.5 µM)
- IC90 [10]: 16.00 µg/mL (≈ 57.9 µM)
- IC50 [11]: 4 µg/mL (≈ 14.5 µM)
- IC90 [11]: >16 µg/mL
- IC50 [12]: 2.19 µg/mL (≈ 7.93 µM)
- IC90 [12]: 22.13 µg/mL (≈ 80.1 µM)
- IC50 [13]: 3.15 µg/mL (≈ 11.4 µM)
- IC90 [13]: >16 µg/mL
- IC50 [14]: 0.96 µg/mL (≈ 3.47 µM)
- IC90 [14]: >16 µg/mL
- IC50 [15]: 1.62 µg/mL (≈ 5.86 µM)
- IC90 [15]: 9.26 µg/mL (≈ 33.5 µM)
- IC50 [16]: 2.7 µg/mL (≈ 9.77 µM)
- IC90 [16]: >16 µg/mL
- IC50 [17]: 6.63 µg/mL (≈ 24 µM)
- IC90 [17]: 10.57 µg/mL (≈ 38.3 µM)
- IC50 [18]: 1.83 µg/mL (≈ 6.62 µM)
- IC90 [18]: >16 µg/mL
- IC50 [19]: >16 µg/mL
- IC90 [19]: >16 µg/mL
- IC50 [20]: 6.36 µg/mL (≈ 23 µM)
- IC90 [20]: 14.63 µg/mL (≈ 53 µM)
- proliferation of Hep G2 cells [21]: can inhibit the proliferation of Hep G2 cells
- tumor growth in tumor-bearing nude mice [22]: can inhibit the tumor growth in the mice
- growth of SGC-7901 cells cultured in vitro [23]: significant inhibitory effect
- solubility in water [24]: poor solubility in water
- in vivo bioavailability [25]: low in vivo bioavailability
